According to ChEMBL document CHEMBL1143508, “Design, synthesis, and structure-activity relationships of tetrahydroquinoline-based farnesyltransferase inhibitors” (Bioorg Med Chem Lett, 2005):
pIC50: −log10 of the molar value.

How the values were obtained:
[1] = biological target: T1, Protein farnesyltransferase (Rattus norvegicus) (UniProt Q04631+Q02293); assay: Percentage cellular reversion of H-ras transformed Rat-1 cells at 100 nM; format: functional, cell-based
[2] = biological target: Protein farnesyltransferase (Homo sapiens, UniProt P49354+P49356); assay: Inhibition of human farnesyltransferase; format: protein-complex assay
[3] = biological target: Protein farnesyltransferase (Rattus norvegicus, UniProt Q02293+Q04631); assay: Inhibition of cellular reversion in H-ras transformed Rat-1 cells; format: functional, cell-based
[4] = biological target: T1, Protein farnesyltransferase (Rattus norvegicus); assay: Percentage cellular reversion in H-ras transformed Rat-1 cells at 1 uM; format: functional, cell-based
[5] = biological target: T1, Protein farnesyltransferase (Rattus norvegicus); assay: Percentage cellular reversion in H-ras transformed Rat-1 cells at 10 uM; format: functional, cell-based

Row | Cellular reversion [1] [%] | pIC50 [2] | pIC50 [3] | Cellular reversion [4] [%] | Cellular reversion [5] [%] | Compound
1 | 75 | 8.34 | – | – | – | Cn1cc(S(=O)(=O)N(Cc2ccccc2)C2Cc3cc(C#N)ccc3N(Cc3cncn3C)C2)cn1 (stereo not given)
2 | 45 | 8.46 | – | – | – | CN(C1Cc2cc(C#N)ccc2N(Cc2cncn2C)C1)S(=O)(=O)c1ccccc1 (stereo not given)
3 | 70 | 8.92 | 7.00 | – | – | C=C(C)CN(C1Cc2cc(C#N)ccc2N(Cc2cncn2C)C1)S(=O)(=O)c1cccnc1 (stereo not given)
4 | 0 | 8.55 | – | 85 | – | Cn1cncc1CN1CC(N(Cc2ccccc2)S(C)(=O)=O)Cc2cc(C#N)ccc21 (stereo not given)
5 | 85 | 9.05 | – | – | – | Cn1cncc1CN1CC(N(Cc2ccsc2)S(=O)(=O)c2cccnc2)Cc2cc(C#N)ccc21 (stereo not given)
6 | 0 | < 5.30 | – | – | – | Cn1cncc1CN1CC(N(CCc2ccccc2)S(=O)(=O)c2ccccc2)Cc2cc(C#N)ccc21 (stereo not given)
7 | 85 | 9.05 | 7.22 | – | – | C=C(C)CN(C1Cc2cc(C#N)ccc2N(Cc2cncn2C)C1)S(=O)(=O)c1ccccn1 (stereo not given)
8 | 90 | 9.10 | 8.10 | – | – | C=C(C)CN(C1Cc2cc(C#N)ccc2N(Cc2cncn2C)C1)S(C)(=O)=O (stereo not given)
9 | 75 | 8.96 | – | – | – | Cn1cnc(S(=O)(=O)N(Cc2ccccc2)C2Cc3cc(C#N)ccc3N(Cc3cncn3C)C2)c1 (stereo not given)
10 | 80 | 8.55 | – | – | – | Cn1cncc1CN1C[C@H](N(Cc2ccsc2)S(=O)(=O)c2ccccc2)Cc2cc(C#N)ccc21
11 | 0 | 7.77 | – | 10 | – | CN(C1Cc2cc(C#N)ccc2N(Cc2cncn2C)C1)S(=O)(=O)c1cccnc1 (stereo not given)
12 | 85 | 9.05 | 7.15 | – | – | Cn1cncc1CN1CC(N(Cc2ccccc2)S(=O)(=O)c2cccnc2)Cc2cc(C#N)ccc21 (stereo not given)
13 | 0 | 7.32 | – | 90 | – | Cn1cncc1CN1CC(N(CC2CCCCC2)S(=O)(=O)c2ccccc2)Cc2cc(C#N)ccc21 (stereo not given)
14 | 75 | 8.40 | – | – | – | Cn1cncc1CN1CC(N(CC(=O)OC(C)(C)C)S(=O)(=O)c2ccccc2)Cc2cc(C#N)ccc21 (stereo not given)
15 | 0 | 8.00 | – | – | 30 | Cn1cncc1CN1CC(NS(=O)(=O)c2ccccc2)Cc2cc(C#N)ccc21 (stereo not given)
16 | 90 | 9.22 | 7.52 | – | – | Cn1cnc(S(=O)(=O)N(CC(=O)OC(C)(C)C)C2Cc3cc(C#N)ccc3N(Cc3cncn3C)C2)c1 (stereo not given)
17 | 90 | 8.60 | – | – | – | Cn1cncc1CN1CC(N(Cc2ccsc2)S(=O)(=O)c2ccccc2)Cc2cc(C#N)ccc21 (racemic)
18 | 85 | 8.52 | – | – | – | Cn1cncc1CN1CC(N(Cc2ccccc2)S(=O)(=O)c2ccccc2)Cc2cc(C#N)ccc21 (stereo not given)
19 | 30 | 8.41 | 6.65 | – | – | Cn1cncc1CN1CC(N(CC(=O)OC(C)(C)C)S(=O)(=O)c2cccnc2)Cc2cc(C#N)ccc21 (stereo not given)
20 | 80 | 9.52 | 7.30 | – | – | C=C(C)CN(C1Cc2cc(C#N)ccc2N(Cc2cncn2C)C1)S(=O)(=O)c1cn(C)cn1 (stereo not given)
21 | 65 | – | – | – | – | Cn1cnc(S(=O)(=O)N(Cc2ccsc2)C2Cc3cc(C#N)ccc3N(Cc3cncn3C)C2)c1 (stereo not given)
22 | 95 | 9.05 | – | – | – | C=C(C)CN(C1Cc2cc(C#N)ccc2N(Cc2cncn2C)C1)S(=O)(=O)c1ccccc1 (stereo not given)
23 | 85 | 8.96 | – | – | – | Cn1cncc1CN1C[C@@H](N(Cc2ccsc2)S(=O)(=O)c2ccccc2)Cc2cc(C#N)ccc21
24 | 0 | 8.12 | – | 25 | – | CN(C1Cc2cc(C#N)ccc2N(Cc2cncn2C)C1)S(=O)(=O)c1cnn(C)c1 (stereo not given)
25 | 90 | 8.59 | > 7.70 | – | – | Cn1cncc1CN1CC(N(Cc2ccccc2)S(=O)(=O)c2ccccn2)Cc2cc(C#N)ccc21 (stereo not given)
26 | 95 | – | – | – | – | Cn1cc(S(=O)(=O)N(Cc2ccsc2)C2Cc3cc(C#N)ccc3N(Cc3cncn3C)C2)cn1 (stereo not given)
27 | 0 | 8.51 | – | 85 | – | CN(C1Cc2cc(C#N)ccc2N(Cc2cncn2C)C1)S(=O)(=O)c1ccccn1 (stereo not given)
28 | 95 | – | 7.89 | – | – | Cn1cncc1CN1CC(N(Cc2ccsc2)S(=O)(=O)c2ccccn2)Cc2cc(C#N)ccc21 (stereo not given)
29 | 85 | – | 8.00 | – | – | Cn1cncc1CN1CC(N(CC(=O)OC(C)(C)C)S(=O)(=O)c2ccccn2)Cc2cc(C#N)ccc21 (stereo not given)
